Assay results published in PMC10140581, “Development and evaluation of novel artemisinin-isatin hybrids with potential anti-leukemic cytotoxicity” (Frontiers in Oncology, 2023).

How the values were obtained:
[1] = test system: CCRF-CEM human acute lymphoblastic leukemia cell line; test: MTT antiproliferative assay, CCRF-CEM; type: cell-based
Description: (§1) The antiproliferative activity and cytotoxicity of ester tethered ART-isatin hybrids 7a-u against human myeloid leukemia cell lines (K562 CM-0130 purchased from Procell and K562/ADR AW-CELLS-H0187 purchased from AnWei-sci), human acute lymphoblastic leukemia cell line (CCRF-CEM CL-0058 purchased from Procell) as well as cytotoxicity towards normal human peripheral blood mononuclear cells (PBMCs 230470, purchased from Mingzhoubio) were assessed by 3-(4,5-dimethylthiazol-2-yl)-2,5-diphenyltetrazolium bromide (MTT) assay.
(§2) Medium in wells was replaced after 24 h with fresh medium containing the tested compounds in DMSO (1% v/v) and incubated for 72 h. […] 3-(4,5-dimethyl-2-thiazolyl)-2,5-diphenyltetrazolium bromide (MTT) solution (10 µL) was added to each well, and the cultures were incubated for an additional 4 h at 37°C. A further 100 µL of […] was added and incubation continued overnight at 37°C. The absorbance at 540 nm was determined in each well with a 96-well plate reader. The growth of the treated cells was compared with that of untreated cells. Half maximum inhibitory concentration (IC50) is a measurement of the efficacy of a substance in inhibiting a specific biological or biochemical process. […] In this experiment, the dose-response curve constructed by Spss22.0 software was used to calculate the inhibitory effect of the hybrid (0 μM-100 μM) on the activity of leukemia cell lines. Each experiment was performed independently in triplicate with three tests in each, and results were reported as mean inhibitory concentration IC50.

[2] = test system: K562/ADR human myeloid leukemia cell line; test: MTT antiproliferative assay, K562/ADR; type: cell-based
Description: as §1, with “assay. The antiproliferative activity was expressed by half maximal inhibitory concentration (IC50) values, which were presented in Table 2 .” for “assay.”
as §2

[3] = test system: K562 human myeloid leukemia cell line; test: MTT antiproliferative assay, K562; type: cell-based
Description: as §1, §2

[4] = MTT cytotoxicity assay, normal PBMCs; type: cell-based, human; details: normal peripheral blood mononuclear cells (PBMCs); MTT assay, normal human PBMCs
Description: as §1

[5] = test system: normal human peripheral blood mononuclear cells (PBMCs); test: MTT cytotoxicity assay, normal PBMCs; type: cell-based; details: PBMCs vs CCRF-CEM
Description: as §1

## CON=C1C(=O)N(CC(=O)OC2O[C@@H]3O[C@@]4(C)CC[C@H]5[C@H](C)CC[C@@H]([C@H]2C)[C@@]35OO4)c2ccccc21 (stereo partly drawn) [hybrid 7a, (3R,5aS,6R,8aS,9R,12R,12aR)-3,6,9-trimethyldecahydro-12H-3,12-epoxy[1,2]dioxepino[4,3-i]isochromen-10-yl 2-(3-(methoxyimino)-2-oxoindolin-1-yl)acetate]
[1]
  IC50: 3.83 µM
[2]
  IC50: 49.8 µM
[3]
  IC50: 33.6 µM
[4]
  IC50: > 100 µM
[5]
  SI, Selectivity index, IC50(PBMCs)/IC50(CCRF-CEM): >26.10

## C[C@@H]1CC[C@H]2[C@@H](C)C(OC(=O)CCCN3C(=O)C(=NOCc4ccccc4)c4cc(F)ccc43)O[C@@H]3O[C@@]4(C)CC[C@@H]1[C@]32OO4 (stereo partly drawn) [hybrid 7r, (3R,5aS,6R,8aS,9R,12R,12aR)-3,6,9-trimethyldecahydro-12H-3,12-epoxy[1,2]dioxepino[4,3-i]isochromen-10-yl 4-(3-[(benzyloxy)imino)-5-fluoro-2-oxoindolin-1-yl]butanoate]
[1]
  IC50: 9.21 µM
[2]
  IC50: > 100 µM
[3]
  IC50: 6.32 µM
[4]
  IC50: > 100 µM
[5]
  SI, Selectivity index, IC50(PBMCs)/IC50(CCRF-CEM): >10.85

## CCON=C1C(=O)N(CCCC(=O)OC2O[C@@H]3O[C@@]4(C)CC[C@H]5[C@H](C)CC[C@@H]([C@H]2C)[C@@]35OO4)c2ccc(F)cc21 (stereo partly drawn) [hybrid 7q, (3R,5aS,6R,8aS,9R,12R,12aR)-3,6,9-trimethyldecahydro-12H-3,12-epoxy[1,2]dioxepino[4,3-i]isochromen-10-yl 4-(3-(ethoxyimino)-5-fluoro-2-oxoindolin-1-yl)butanoate]
[1]
  IC50: 12.7 µM
[2]
  IC50: > 100 µM
[3]
  IC50: 16 µM
[4]
  IC50: > 100 µM
[5]
  SI, Selectivity index, IC50(PBMCs)/IC50(CCRF-CEM): >7.85

## CON=C1C(=O)N(CCC(=O)OC2O[C@@H]3O[C@@]4(C)CC[C@H]5[C@H](C)CC[C@@H]([C@H]2C)[C@@]35OO4)c2ccc(OC)cc21 (stereo partly drawn) [hybrid 7k, (3R,5aS,6R,8aS,9R,12R,12aR)-3,6,9-trimethyldecahydro-12H-3,12-epoxy[1,2]dioxepino[4,3-i]isochromen-10-yl 3-(5-methoxy-3-(methoxyimino)-2-oxoindolin-1-yl)propanoate]
[1]
  IC50: 6.74 µM
[2]
  IC50: > 100 µM
[3]
  IC50: > 100 µM
[4]
  IC50: > 100 µM
[5]
  SI, Selectivity index, IC50(PBMCs)/IC50(CCRF-CEM): >14.83

## CCON=C1C(=O)N(CCC(=O)OC2O[C@@H]3O[C@@]4(C)CC[C@H]5[C@H](C)CC[C@@H]([C@H]2C)[C@@]35OO4)c2ccc(OC)cc21 (stereo partly drawn) [hybrid 7l, (3R,5aS,6R,8aS,9R,12R,12aR)-3,6,9-trimethyldecahydro-12H-3,12-epoxy[1,2]dioxepino[4,3-i]isochromen-10-yl 3-(5-methoxy-3-(ethoxyimino)-2-oxoindolin-1-yl)propanoate]
[1]
  IC50: 19.4 µM
[2]
  IC50: > 100 µM
[3]
  IC50: > 100 µM
[4]
  IC50: > 100 µM
[5]
  SI, Selectivity index, IC50(PBMCs)/IC50(CCRF-CEM): >5.16
